The assay concerns CEM cells HIV-1 protection, formazan growth assay. The assay is described as follows: NCI AIDS Antiviral Assay. Conditions: for IC50: measured here: growth of uninfected CEM cells. In a few lines:
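Screen of anti-HIV-1 activity in human CEM cells using a formazan-based growth measurement at five drug concentrations. Hits with 50% or greater protection were repeated, and confirmation required reproducible complete protection.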

Calls of active or inactive are those of the source.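 Rule for the calls: active = compounds giving half or more protection of infected cells from virus-caused growth loss, again on retest; inactive = the rest.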 Where a SMILES comes first, the peptide text is derived from it.

Broadly, the EC50 is the concentration needed to bring the measured effect to its halfway point. As a reminder, the IC50 is the point on the concentration scale where inhibition reaches its midpoint. The low end stands for higher potency, the high end for lower potency. For the compound `O=C(Nc1ccc(/C=C\c2ccc(NC(=O)c3cc(S(=O)(=O)O)ccc3O)cc2S(=O)(=O)O)c(S(=O)(=O)O)c1)c1cc(S(=O)(=O)O)ccc1O`, the 50% effective concentration (EC50) is 70.8 µM and the half-inhibitory concentration (IC50) was more than 100 µM.
Take `COc1ccc(C2OC(c3ccncc3)=NN2C)cc1OC` (stereo not drawn): the EC50 was more than 200 µM and the concentration for half-maximal inhibition (IC50) was determined as 87.1 µM.
As to `O=C(/C=C/c1ccc(O)c(O)c1)OCCCOC(=O)/C=C/c1ccc(O)c(O)c1`, the EC50 is more than 100 µM and the half-inhibitory concentration (IC50) came out at 13.8 µM.
For `C[Si](C)(C)/C=C/CN1C(=O)CCC1O` (stereo not drawn), the outcome was inactive.
As for `CCC(=O)C(CCN1CCC(N2C(=O)C(CCC#N)c3ccccc32)CC1)(c1ccccc1)c1ccccc1` (stereo not drawn), the EC50 was more than 200 µM and the IC50 is 28.8 µM.
In the case of `Cc1cn(C2OC(CO[Si](C)(C)C(C)(C)C)C(N(C)O[Si](C)(C)C(C)(C)C)C2[Se]c2ccccc2)c(=O)[nH]c1=O` (stereo not drawn), the EC50 was more than 200 µM and the IC50 is 8.32 µM.
As to `CN(C)CCSC(=Nc1ccccc1)N1CCCCC1`, the EC50 is more than 123 µM and the half-inhibitory concentration (IC50) came out at 20.9 µM.
As for `CCCCCOC(=S)SSSC(=S)OCCCCC`, the EC50 was more than 200 µM and the half-maximal inhibitory concentration (IC50) was 7.76 µM.
Take `COC(=O)Nc1cn2ccc(Sc3ccccc3)cc2n1`: the EC50 was more than 45.7 µM and the IC50 was 0.776 µM.
As for `CS(=O)(=O)ON1C(=O)c2ccc(N)cc2C1=O`, the EC50 is more than 372 µM and the IC50 was 282 µM.
Consider `CCOC(=O)c1c(NS(=O)(=O)c2ccccc2)sc2c1CCCC2`, for which the outcome was inactive.
Consider `O=S(=O)(F)c1ccccc1C[P+](c1ccccc1)(c1ccccc1)c1ccccc1`, for which the EC50 was more than 200 µM and the IC50 was 17.8 µM.
In the case of `O=C1OC(c2ccc(Cl)c3ccccc23)c2ccccc21` (stereo not drawn), the EC50 is more than 17.8 µM and the IC50 was more than 17.8 µM.
As for `CCCC(C)C[C@@H](C)CC(C)/C=C(\C)c1oc(=O)c(C)c(O)c1C` (stereo partly drawn) (tested in a mixture with another compound), the result was inactive.
For `CNc1ccc(N)cc1C(=O)N1CCC[C@H]1CO`, the EC50 is more than 200 µM and the concentration for half-maximal inhibition (IC50) is more than 200 µM.
Consider `CCN(CC)CC[NH-].O=C([O-])C(=O)[O-].O=C([O-])C(=O)[O-].[Co+3].[K+]`, for which the EC50 was more than 200 µM and the concentration for half-maximal inhibition (IC50) was determined as 148 µM.
On to `CC(=O)C1=CN=C2C(=O)N(c3ccccc3)N(C)C12C` (stereo not drawn), for which the EC50 is more than 200 µM and the 50% inhibitory concentration (IC50) is more than 200 µM.
With `CC1c2c(cc(=O)n(C)c2O)C(=O)N1C` (stereo not drawn), the EC50 was 288 µM and the IC50 amounted to 457 µM.
Turning to `CC1(O)CC(C(F)(F)F)(C(F)(F)F)OC1=O` (stereo not drawn), the EC50 is more than 200 µM and the concentration for half-maximal inhibition (IC50) is more than 200 µM.
As to `CC(=O)Oc1ccc(/C=C/C(=O)O[C@@H](C(=O)O)[C@@H](OC(=O)/C=C/c2ccc(OC(C)=O)c(OC(C)=O)c2)C(=O)O)cc1OC(C)=O`, the EC50 is more than 30.2 µM and the IC50 was more than 30.2 µM.
In the case of `C/C(=N/N(C=O)C[n+]1ccccc1)C(CN(CC(C)C)CC(C)C)C(=O)Nc1ccc(C)cc1C` (stereo not drawn), the EC50 is more than 69.2 µM and the IC50 was more than 69.2 µM.
With `CC1=NN2C(=N)/C(=C/c3ccc(F)cc3)C(=O)N=C2S1`, the EC50 is more than 200 µM and the IC50 is more than 200 µM.
On to `CCOC(=O)C(Cc1ccc([N+](=O)[O-])cc1)NC(=O)CC1c2ccccc2-c2ccccc21` (stereo not drawn), for which the EC50 was more than 11.7 µM and the IC50 is more than 11.7 µM.
`C=C(OC1C(C)=C2C(C1OC(=O)CCCCCCC)C(C)(OC(C)=O)CC(OC(=O)CCC)C1(O)C2OC(=O)C1(C)O)/C(C)=C/C` (stereo not drawn): the EC50 was more than 2 µM and the IC50 was 0.00282 µM.
As to `COc1ccc(C2=Nc3ccccc3NC(=O)C2)cc1`, the EC50 is more than 37.2 µM and the IC50 was more than 37.2 µM.
`O=C(CCCN1CCC2(CC1)C(=O)NC(=O)N2c1ccccc1)c1ccc(F)cc1`: the EC50 was more than 200 µM and the 50% inhibitory concentration (IC50) was more than 200 µM.
Turning to `C[C@@H]1O[C@]2(O)[C@@H]3CCCN3S(=O)(=O)CCN2C1=O`, the EC50 was more than 912 µM and the IC50 was more than 912 µM.
Consider `COc1cc(/C=C/C(=O)OC[C@H](Br)[C@H](OC(C)=O)c2ccc3c(c2)OCO3)cc(OC)c1OC`, for which the EC50 is more than 200 µM and the IC50 is 47.9 µM.
On to `Cc1cccc2c1CC(C1OC(=O)c3ccccc31)C2=O` (stereo not drawn), for which the EC50 is more than 100 µM and the IC50 was more than 100 µM.
Take `CC1OC(OCC2OC(Oc3c(-c4ccc(O)cc4)oc4cc(O)cc(O)c4c3=O)C(OC3OCC(O)(CO)C3O)C(O)C2O)C(O)C(O)C1O` (stereo not drawn): the EC50 was more than 347 µM and the concentration for half-maximal inhibition (IC50) was more than 347 µM.
On to `COc1ccc(N2C(=O)C3c4[nH]c5cccc(C)c5c4C4CCC(C(C)(C)C)CC4C3C2=O)cc1` (stereo not drawn), for which the EC50 is more than 200 µM and the IC50 was determined as 89.1 µM.
In the case of `O=S(=O)(c1ccccc1)N1C2CCCC21` (stereo not drawn), the result was inactive.
In the case of `C/C(CC(=O)Nc1cccc([N+](=O)[O-])c1)=N/NC(N)=S`, the EC50 was more than 447 µM and the IC50 is more than 447 µM.
Turning to `O=C(O)CNC(=O)Cn1[se]c2ccccc2c1=O`, the half-maximal effective concentration (EC50) was 18.2 µM and the 50% inhibitory concentration (IC50) stood at 110 µM.
With `Cc1cccc2c(NCCCN(C)C)c3c([N+](=O)[O-])ccc(C)c3nc12`, the EC50 is more than 2 µM and the concentration for half-maximal inhibition (IC50) stood at 0.162 µM.
The like results for `c1ccc2nc(NCCSSCCNc3cnc4ccccc4n3)cnc2c1` were, in that order, more than 200 µM and 24.5 µM.
On to `COC(=O)c1noc2c1CSC1=C2CS(=O)(=O)c2ccccc21`, for which the EC50 was more than 200 µM and the half-maximal inhibitory concentration (IC50) was more than 200 µM.
On to `CC(=O)NC(C(=O)NC(C)C(=O)N1CCCC1C(=O)O)C(C)C` (stereo not drawn) (Ac-Val-Ala-Pro-OH; configuration not given here), for which the EC50 is more than 200 µM and the IC50 is more than 200 µM.
For `COc1ccc(C(=O)N2CCN(c3ccc4c(c3)OCC(=O)N4)CC2)cc1`, the EC50 is more than 200 µM and the concentration for half-maximal inhibition (IC50) was more than 200 µM.
With `O=c1[nH]c(=O)n([C@H]2CCCO2)cc1F`, the EC50 was more than 631 µM and the half-maximal inhibitory concentration (IC50) is 102 µM.
Regarding `COc1cc(C2[C@H]3C(=O)N(c4ccc(Cc5ccc(N6C(=O)[C@@H]7ON(c8ccccc8)C(c8cc(OC)c(OC)c(OC)c8)[C@@H]7C6=O)cc5)cc4)C(=O)[C@H]3ON2c2ccccc2)cc(OC)c1OC` (stereo partly drawn), the EC50 was more than 5.62 µM and the IC50 was more than 5.62 µM.
In the case of `CC(=O)Nc1cc2ccc(C)nc2c2nc(C)ccc12`, the EC50 is more than 200 µM and the IC50 is more than 200 µM.
Regarding `COc1cc(Cl)c2c3c(c(C(C)=O)oc13)CCC2`, the outcome was inactive.
On to `O=C1c2ccc(O)c(O)c2C(=O)c2c(O)ccc(O)c21`, for which the EC50 is more than 63.1 µM and the IC50 was determined as 11.7 µM.
In the case of `Cc1[nH]nc(N)c1C#N`, the EC50 was more than 200 µM and the IC50 is 191 µM.
`C/C1=C\[C@@H](O)C(=O)/C=C/C=C\c2csc(n2)[C@@H](C)NC(=O)C[C@@]2(CC1)S(=O)SC(=O)[C@]2(C)O` (stereo partly drawn): the EC50 is more than 1.32 µM and the IC50 stood at 0.0055 µM.
As for `CC1(C)C(=O)/C=C\C(=O)C(C)(C)C(=O)/C=C\C(=O)C(C)(C)C2=CC=C(O2)C(C)(C)C(=O)/C=C\C1=O`, the result was inactive.
`Cn1c2c(c3ccccc31)CCN(CCCN1CCN(c3ccccc3)CC1)C2=O`: the EC50 is more than 55 µM and the half-inhibitory concentration (IC50) amounted to 44.7 µM.
As to `CCOP1(=O)CC(C)=C(Cl)C(O)C1` (stereo not drawn), the EC50 is more than 200 µM and the concentration for half-maximal inhibition (IC50) was more than 200 µM.
Take `CC1CCC2[C@@H](C)COC3O[C@]4(C)CCC1C32OO4` (stereo partly drawn): the EC50 was more than 339 µM and the IC50 is 302 µM.
The like results for `COc1ccc2cc(Oc3ccc(Cl)cc3)c(=O)oc2c1` were, in that order, more than 200 µM and more than 200 µM.
Consider `O=c1[nH]nc(Cc2ccc(Cl)cc2)n1CCO`, for which the EC50 is more than 200 µM and the IC50 was more than 200 µM.
In the case of `CC1C(c2ccc(F)cc2)c2cc3c(cc2OC1N1CCCC1)OCO3` (stereo not drawn), the EC50 is more than 200 µM and the half-maximal inhibitory concentration (IC50) was 129 µM.
`CCOC(=O)Cc1nc2nn(Cc3ccccc3)cc2c(=O)[nH]1`: the EC50 was more than 200 µM and the half-inhibitory concentration (IC50) is more than 200 µM.
For `CCOP(=Nc1ccc(N(C)C)cc1)(OCC)OCC`, the EC50 was more than 200 µM and the half-inhibitory concentration (IC50) was more than 200 µM.
Turning to `CN(C)C[C@@H]1C2C=CC(C2)[C@@H]1CO` (stereo partly drawn), the EC50 was more than 490 µM and the IC50 is more than 490 µM.
Take `NCS(=O)(=O)O`: the EC50 is more than 200 µM and the IC50 was determined as 18.6 µM.
Take `O=C(/C(=N/N(C(=O)c1ccccc1)c1ccccc1)c1ccccc1)c1ccccc1`: the result was inactive.
Regarding `CCOC(COc1c2occc2cc2ccc(=O)oc12)OCC`, the EC50 was more than 141 µM and the half-inhibitory concentration (IC50) was determined as 51.3 µM.
As for `Cc1nc(C(N)=S)sc1C(=O)/C=C/c1c(O)ccc2ccccc12`, the EC50 is more than 53.7 µM and the IC50 was 42.7 µM.
Consider `O=C(Nc1ccccc1)N(CCN(Cc1ccccc1)C(=O)Nc1ccccc1)CCN(Nc1ccccc1)C(=O)Nc1ccccc1`, for which the EC50 is more than 200 µM and the IC50 is more than 200 µM.
On to `NC(=O)C1Cc2cc3c(cc21)OCO3` (stereo not drawn), for which the EC50 is more than 200 µM and the IC50 is more than 200 µM.
As for `COc1ccc2nc3cc(Cl)ccc3c(Nc3ccccc3-c3ccccc3Nc3c4ccc(Cl)cc4nc4ccc(OC)cc34)c2c1`, the EC50 is more than 4.07 µM and the IC50 was more than 4.07 µM.
As to `O=C1OC2(OC2c2ccc(Cl)cc2)c2ccccc21` (stereo not drawn), the EC50 was more than 69.2 µM and the IC50 is more than 69.2 µM.
For `CCCCCCCCCCCC(=O)OCCOCCOCCOCCOCCOCCOCCOCCOCCO`, the EC50 was more than 200 µM and the IC50 was 145 µM.
In the case of `COC(=O)c1cc(=O)nc(N/N=C/c2ccccc2O)s1`, the EC50 is more than 85.1 µM and the IC50 stood at 57.5 µM.
Turning to `c1cnc2c(c1)Sc1ncccc1S2`, the EC50 was more than 115 µM and the IC50 is 51.3 µM.
As for `Cc1cc(C#N)c(Nc2ccc(F)cc2[N+](=O)[O-])s1`, the EC50 is more than 200 µM and the IC50 was more than 200 µM.
On to `Cc1ccc(S(=O)(=O)OC2C3CC4C(=O)OC2C4C3)cc1` (stereo not drawn), for which the EC50 is 126 µM and the 50% inhibitory concentration (IC50) was more than 200 µM.
In the case of `Cc1cc(O)cc(O)c1N=Nc1ccc([N+](=O)[O-])cc1`, the EC50 is more than 200 µM and the IC50 is 3.47 µM.

These data come from PubChem BioAssay AID179 (DTP/NCI, 2004).
